Assay [1] concerns colon cancer cells HCT116. Description: Inhibitory activity against proliferation of cancer cells, SRB (Sulforhodamine B) analysis. The assay is classed as cell-based. The conditions noted are these: Homo sapiens, read-out: Inhibitory conc. against cancer cell growth (EC50 μM) HCT116. As for the experimental part:
Cancer cells were inoculated into a 96-well microplate at a concentration of 1×10^3˜3×10^3 cells/well and incubated under the condition of 37° C., 5% CO2 for 24 hrs. After the incubation was completed, 0.2, 1, 5, 25, or 100 μM of each of the compounds of Examples was added to the plate, and then the reactant was incubated for 48 hrs. After the substrate was stained with SRB, the anti-cancer activity was determined by comparing the amount of protein in the cells treated with the compound of Examples with that of protein in untreated cells.
Specifically, after the incubation was completed, the culture medium was removed from each well, and the cells were washed 3 times with PBS (pH 7.4). Then, a solution of 50% trichloroacetic acid (TCA) was added to each well in an amount of 50 μl/well at 4° C. for 1 hr to fix them. Then, the microplate was washed 5 times with distilled water and dried in air. […]
50 μl of a staining solution prepared by dissolving 0.4% SRB in 1% acetic acid was added to the wells, and the microplate was kept at room temperature for 1 hr. The well plate was then washed 5 times with 1% acetic acid to remove unbound SRB and dried in air. The stained cells were treated with 150 μl/well of 10 mM Tris-HCl solution (pH 10.5) to elute SRB from the cells, and the absorbance of the cells treated with the compounds of examples at 540 nm was measured, based on the absorbance of an untreated cell. The EC50 value representing inhibition of the cancer cell growth by the extent of 50% was calculated from the measured absorbance, and the results are shown in Table 6.

A further assay relates to HDAC. The assay is described as follows: Inhibitory activity against HDAC (BIOMOL Quantizyme Assay system, Fluor de Lys substrate). Conditions: HeLa nuclear extract as source of HDAC enzymes, enzyme reaction 1 hr. The assay is classed as biochemical. As to the method:
HDAC activity was analyzed using BIOMOL Quantizyme™ Assay system which comprised two steps of 1) enzyme reaction between HDAC and a substrate and 2) determination of the level of HDAC inhibitory activity.
(§1) 0.5 μl of HeLa nuclear organic layer (10 μM) (a source of HDAC enzymes) was then added thereto to a final concentration of 100 nM. The enzyme reaction was carried out for 1 hr.
Subsequently, in step 2), 2 μM tricostatin A was added to 50 μl of Flour de Lys™ developer, followed by allowing the mixture to react at room temperature for 15 minutes. The light excited at 355 nm and emitted at 460 nm from the fluorophore was measured with a fluorometric plate reader. The intensity of the fluorescence increases as the enzyme activity is higher. The HDAC inhibitory activity of each of the test compounds was determined and compared with that of the control.
0.5 μl of HeLa nuclear organic layer (10 μM) (a source of HDAC enzymes) was then added thereto to a final concentration of 100 nM, The enzyme reaction was carried out for 1 hr.
as §1, §1

The mark [2] stands for this setting: HCT-116, Table 2, 48 hrs incubation with compound.
The mark [3] stands for this setting: Table 1, formula (1) series, read-out: IC50 (HDAC inhibitory concentration).
The mark [4] stands for this setting: HCT-116, Table 4, 48 hrs incubation with compound.
[5] abbreviates: Table 3, formula (2) series, read-out: IC50 (HDAC inhibitory concentration).
[6] abbreviates: Table 7, formula (4) series, read-out: HDAC Inhibitory conc. (IC50, μM/ml).

Like-named read-outs stand apart in the source and are kept apart here.

Regarding `CN1CCC(NC(=O)/C(=C/c2ccc(C(=O)NO)cc2)COc2cccc3ccccc23)CC1` [Example 1-1, (E)-4-(3-(1-Methylpiperidin-4-ylamino)-2-((naphthalen-1-yloxy)methyl)-3-oxoprop-1-enyl)-N-hydroxybenzamide], the EC50 in assay [1] (setting [2]) turned out to be 0.54 µM. In addition, the IC50 with HDAC (setting [3]) worked out at 0.006 µM. With `CN(C)CC(C)(C)CNC(=O)/C(=C/c1ccc(C(=O)NO)cc1)COc1cccc2ccccc12` [Example 1-4], the EC50 in assay [1] (setting [2]) was determined as 0.5 µM. Also, the IC50 with HDAC (setting [3]) came out at 0.014 µM. The corresponding values for `COCC(C)NC(=O)/C(=C/c1ccc(C(=O)NO)cc1)COc1cccc2ccccc12` (centres unmarked) [Example 1-6, (E)-4-(3-(1-Methoxypropan-2-ylamino)-2-((naphthalen-1-yloxy)methyl)-3-oxoprop-1-enyl)-N-hydroxybenzamide] are 0.63 µM and 0.023 µM. For `COc1ccc(CNC(=O)/C(=C/c2ccc(C(=O)NO)cc2)COc2cccc3ccccc23)cc1` [Example 1-7, (E)-4-(3-(4-Methoxybenzylamino)-2-((naphthalen-1-yloxy)methyl)-3-oxoprop-1-enyl)-N-hydroxybenzamide], in that order: 0.7 µM and 0.01 µM. For `O=C(NCc1ccco1)/C(=C/c1ccc(C(=O)NO)cc1)COc1cccc2ccccc12` [Example 1-12, (E)-4-(3-(Furan-2-ylmethylamino)-2-((naphthalen-1-yloxy)methyl)-3-oxoprop-1-enyl)-N-hydroxybenzamide], in that order: 0.6 µM and 0.007 µM. For the molecule `CN(C)c1ccc(CNC(=O)/C(=C/c2ccc(C(=O)NO)cc2)COc2cccc3ccccc23)cc1` [Example 1-13, (E)-4-(3-(4-(Dimethylamino)benzylamino)-2-((naphthalen-1-yloxy)methyl)-3-oxoprop-1-enyl)-N-hydroxybenzamide], in assay [1] (setting [2]), the half-maximal effective concentration (EC50) turned out to be 0.8 µM. The IC50 in the assay with HDAC (setting [3]) amounted to 0.02 µM. For `CCN1CCC(NC(=O)/C(=C/c2ccc(C(=O)NO)cc2)COc2cccc3ccccc23)CC1` [Example 1-17, (E)-4-(3-(1-Ethylpiperidin-4-ylamino)-2-((naphthalen-1-yloxy)methyl)-3-oxoprop-1-enyl)-N-hydroxybenzamide], in that order: 0.5 µM and 0.008 µM. For `CN1CCCC1CCNC(=O)/C(=C/c1ccc(C(=O)NO)cc1)COc1cccc2ccccc12` (centres unmarked) [Example 1-22, (E)-4-(3-(2-(1-Methylpyrrolidin-2-yl)ethylamino)-2-((naphthalen-1-yloxy)methyl)-3-oxo-1-propenyl)-N-hydroxy-benzamide], in that order: 0.8 µM and 0.013 µM. `CC(C)N1CCC(NC(=O)/C(=C/c2ccc(C(=O)NO)cc2)COc2cccc3ccccc23)CC1` [Example 1-23, (E)-4-(3-(1-Isopropylpiperidin-4-ylamino)-2-((naphthalen-1-yloxy)methyl)-3-oxoprop-1-enyl)-N-hydroxybenzamide]: the EC50 in assay [1] (setting [2]) is 0.7 µM. As to `COc1ccc(CNC(=O)/C(=C/CCCCC(=O)NO)COc2cccc3ccccc23)cc1` [Example 2-6, (E)-N8-Hydroxy-N1-(4-methoxybenzyl)-2-((naphthalen-1-yloxy)methyl)-2-octenediamide], the EC50 in assay [1] (setting [4]) was found to be 0.8 µM. The IC50 in the assay on HDAC (setting [5]) is 0.005 µM. In the case of `O=C(CCCCC=C(COc1cccc2ccccc12)C(=O)NCC1CCCO1)NO` (centres unmarked) [Example 2-8, (E)-N8-Hydroxy-2-((naphthalen-1-yloxy)methyl)-N1-(tetrahydrofuran-2-yl)methyl)-2-octenediamide], the EC50 in assay [1] (setting [4]) is 0.7 µM. The IC50 with HDAC (setting [5]) turned out to be 0.014 µM. For `O=C(CCCC/C=C(\COc1cccc2ccccc12)C(=O)NCc1ccco1)NO` [Example 2-11, (E)-N1-(Furan-2-ylmethyl)-N8-hydroxy-2-((naphthalen-1-yloxy)methyl)-2-octenediamide], in that order: 0.6 µM and 0.006 µM.

`CN(C)c1ccc(CNC(=O)/C(=C/CCCCC(=O)NO)COc2cccc3ccccc23)cc1` [Example 2-12, (E)-N1-(4-(Dimethylamino)benzyl)-N8-hydroxy-2-((naphthalen-1-yloxy)methyl)-2-octenediamide]: the 50% effective concentration (EC50) in assay [1] (setting [4]) amounted to 0.5 µM. In the assay on HDAC (setting [5]), the IC50 worked out at 0.006 µM. Take `COCCNC(=O)/C(=C/CCCCC(=O)NO)COc1cccc2ccccc12` [Example 2-13, (E)-N8-Hydroxy-N1-(2-methoxyethyl)-2-((naphthalen-1-yloxy)methyl)-2-octenediamide]: in assay [1] (setting [4]), the EC50 was 0.6 µM. For the same molecule, in the assay on HDAC (setting [5]), the IC50 came out at 0.024 µM. `O=C(CCCC/C=C(\COc1cccc2ccccc12)C(=O)NC1CCCCC1)NO` [Example 2-14, (E)-N1-Cyclohexyl-N8-hydroxy-2-((naphthalen-1-yloxy)methyl)-2-octenediamide]: the EC50 in assay [1] (setting [4]) stood at 0.8 µM. Regarding `O=C(CCCC/C=C(\COc1cccc2ccccc12)C(=O)NCc1cccs1)NO` [Example 2-15, (E)-N8-Hydroxy-2-((naphthalen-1-yloxy)methyl)-N1-(thiophen-2-ylmethyl)-2-octenediamide], in assay [1] (setting [4]), the EC50 worked out at 0.4 µM. Also, the IC50 with HDAC (setting [5]) was 0.008 µM. Regarding `O=C(NO)c1ccc(/C=C(/CNC2CCNC2)COc2cccc3ccccc23)cc1` (centres unmarked) [Example 4-5, (Z)—N-hydroxy-4-(3-(naphthalen-1-yloxy)-2-((pyrrolidin-3-ylamino)methyl)prop-1-enyl)-benzamide], the IC50 with HDAC (setting [6]) is 0.02 µM. `O=C(NO)c1ccc(/C=C(/CNC2CCN(C(=O)C3CCCCC3)C2)COc2cccc3ccccc23)cc1` (centres unmarked) [Example 4-6, (Z)-4-(3-(1-(cyclohexylcarbonyl)pyrrolidin-3-ylamino)-2-((naphthalen-1-yloxy)-methyl)prop-1-enyl)-N-hydroxybenzamide]: in the assay with HDAC (setting [6]), the IC50 is 0.061 µM. The same measure, in the same setting: to `O=C(NO)c1ccc(/C=C(/CNC2CCN(CC3CCCCC3)C2)COc2cccc3ccccc23)cc1` (centres unmarked) [Example 4-8, (Z)-4-(3-(1-(cyclohexylmethyl)pyrrolidin-3-ylamino)-2-((naphthalen-1-yloxy)-methyl)prop-1-enyl)-N-hydroxybenzamide] belongs 0.045 µM; to `O=C(NO)c1ccc(/C=C(/CNC2CCN(Cc3ccccc3)C2)COc2cccc3ccccc23)cc1` (centres unmarked) [Example 4-9, (Z)-4-(3-(1-benzylpyrrolidin-3-ylamino)-2-((naphthalen-1-yloxy)methyl)prop-1-enyl)-N-hydroxybenzamide], 0.046 µM. The same measure, in the same setting: to `O=C(NO)c1ccc(/C=C(/CNC2CCN(C3CCCCC3)C2)COc2cccc3ccccc23)cc1` (centres unmarked) [Example 4-12, (Z)-4-(3-(1-cyclohexylpyrrolidin-3-ylamino)-2-((naphthalen-1-yloxy)methyl)prop-1-enyl)-N-hydroxybenzamide] belongs 0.04 µM; to `CN1CCCC1CCNC/C(=C/c1ccc(C(=O)NO)cc1)COc1cccc2ccccc12` (centres unmarked) [Example 4-14, (Z)—N-hydroxy-4-(3-(2-(1-methylpyrrolidin-2-yl)ethylamino)-2-((naphthalen-1-yloxy)methyl)prop-1-enyl)benzamide], 0.013 µM; to `O=C(NO)c1ccc(/C=C(/CNC2CCCCC2)COc2cccc3ccccc23)cc1` [Example 4-21, (Z)-4-(3-(cyclohexylamino)-2-((naphthalen-1-yloxy)methyl)prop-1-enyl)-N-hydroxybenzamide], 0.03 µM. Turning to “(E)-(3-(3-(2-Methylpiperidin-1-yl)propylamino)-2-((naphthalen-1-yloxy)methyl)-3-oxoprop-1-enyl)-N-hydroxybenzamide [Example 1-19]”, the IC50 with HDAC (setting [3]) was 0.009 µM. “(E)-(3-(3-(Pyrrolidin-1-yl)propylamino)-2-((naphthalen-1-yloxy)methyl)-3-oxoprop-1-enyl)-N-hydroxybenzamide [Example 1-20]”: in the assay with HDAC (setting [3]), the IC50 amounted to 0.006 µM. On to “(E)-N1-(2-(Diisopropylamino)ethyl)-N8-hydroxy-2-((naphthalen-1-yloxy)methyl)octenediamide [Example 2-4]”, for which the IC50 in the assay with HDAC (setting [5]) is 0.009 µM. Still for that read-out and setting: the result for “(E)-N1-(3-(Dimethylamino)-2,2-dimethylpropyl)-N8-hydroxy-2-((naphthalen-1-yloxy)methyl)octenediamide [Example 2-3]” reads 0.021 µM.

What is called EC50 is the concentration needed to bring the measured effect to its halfway point.

These data come from patent US8053435B2, “Naphthalenyloxypropenyl derivatives having inhibitory activity against histone deacetylase and pharmaceutical composition comprising the same” (Korea Research Institute of Chemical Technology, priority 2006, dated 2011).
